Non-standard residues stand in square brackets, D forms with d. Residues, ends and D or L forms follow the SMILES beside them. *: point of attachment. Desaminotyrosyl = O=C(CCc1ccc(O)cc1)*; Pen = CC(C)(S)[C@H](N)C(=O)O; Phg = N[C@H](C(=O)O)c1ccccc1; Tle = CC(C)(C)[C@H](N)C(=O)O; Nva = CCC[C@H](N)C(=O)O; Abu = CC[C@H](N)C(=O)O; βAla = NCCC(=O)O
Assays:
[1] = test system: CD1 mice; experiment: Intestinotrophic activity assessment: small bowel weight in mice; format: in vivo; settings: mice, as Example 4; relative to native rat GLP-2(1-33)
Description: Recipients were CD1 mice obtained from Charles River Laboratory (Ontario, Canada). The CD1 mice were aged-matched females at time of injection (n=3-4 per group), 6 weeks of age, unless otherwise specified. The animals were allowed a minimum of 24 hours to acclimatize to the laboratory facility before the initiation of each experiment. Animals were identified by ear punch. The mice were not restricted by diet or activity during the experiments. The light/dark cycle was 12 hours, between 6 pm to 6 am. Controls were age- and sex-matched (n=3-4) animals. Mice were injected subcutaneously, twice a day (b.i.d.), with 2.5 μg peptide in a total volume of 0.5 cc of PBS and were monitored daily in the laboratory facility. Animals were sacrificed 10 or 14 days after injection, and were fasted at least 20 hours before sacrifice.
The mice were anaesthetised with CO2 and exsanguinated by cardiac puncture. Blood was collected in 75 μl of TED (Trasysol; EDTA (5000 KIU/ml: 1.2 mg/ml; Diprotin-A), and the blood was centrifuged at 14 k×g for 5 minutes and the plasma was stored at −70 prior to analysis. The small bowel was removed from the peritoneal cavity, from pylorus to cecum, cleaned weighed and measured. For comparative purpose, sections from each animal were obtained from the identical anatomical position. Fragments each measuring 1.5-2.0 cm in length were obtained 8±2 cm, 18±2 cm, 32±2 cm from pylorus for histomorphometry representing proximal jejunum, distal jejunum and distal ileum. Each small bowel fragment was opened longitudinally on its antimesenteric border in a tissue block and then placed on 10% formalin (vol./vol.) overnight, then transferred to 70% […].
Percentage change in small bowel weight was calculated by dividing the mean change in bowel weight of analog treated mice, relative to mice treated with vehicle only, by the mean bowel weight of mice treated with vehicle only, and multiplying this figure by 100.
Experiments assessing the small bowel inducing activity of various analogs was repeated as described above for Example 4. In these experiments, the small bowel inducing activity of each analog in mice was calculated relative to that of native rat GLP-2(1-33) (expressed as 100% of activity). Resistance of analogs to DPP-IV cleavage was performed as described above in Example 3.

[2] = target: DPP-IV (Homo sapiens, UniProt P27487); experiment: Assay for resistance to dipeptidyl peptidase IV (RP-HPLC of cleavage product); settings: human, isolated human placental DPP-IV (dipeptidyl peptidase IV), pH 7.4, % Cleaved by DPP-IV, as Example 3: human placental DPP-IV, 37° C., PBS pH 7.4
Chain of DPP-IV (P27487 whole entry): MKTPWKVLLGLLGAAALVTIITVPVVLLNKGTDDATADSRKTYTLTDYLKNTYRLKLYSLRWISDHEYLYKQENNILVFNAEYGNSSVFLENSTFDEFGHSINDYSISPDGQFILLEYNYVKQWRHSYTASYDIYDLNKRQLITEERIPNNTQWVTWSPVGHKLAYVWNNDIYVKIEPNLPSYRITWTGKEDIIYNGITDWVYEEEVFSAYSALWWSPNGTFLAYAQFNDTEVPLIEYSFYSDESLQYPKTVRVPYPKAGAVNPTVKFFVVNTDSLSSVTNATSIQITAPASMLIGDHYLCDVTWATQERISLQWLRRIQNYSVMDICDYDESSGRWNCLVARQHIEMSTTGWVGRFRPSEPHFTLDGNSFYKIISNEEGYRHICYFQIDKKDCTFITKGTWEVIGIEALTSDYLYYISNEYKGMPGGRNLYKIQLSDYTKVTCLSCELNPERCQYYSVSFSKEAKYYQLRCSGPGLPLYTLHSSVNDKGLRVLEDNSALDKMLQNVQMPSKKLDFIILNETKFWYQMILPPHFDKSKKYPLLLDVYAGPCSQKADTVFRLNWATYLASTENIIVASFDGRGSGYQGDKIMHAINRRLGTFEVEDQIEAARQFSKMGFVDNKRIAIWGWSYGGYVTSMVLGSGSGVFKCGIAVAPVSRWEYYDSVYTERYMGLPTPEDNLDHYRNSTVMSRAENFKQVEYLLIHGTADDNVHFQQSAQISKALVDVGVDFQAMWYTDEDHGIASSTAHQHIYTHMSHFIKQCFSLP

Compound	% Activity (small bowel inducing activity relative to native rat GLP-2(1-33) = 100%) [1] [%]	metabolised at 24 h, 0.19 mg/ml [2] [%]
CCC[C@H](NC(=O)[C@@H](N)Cc1c[nH]cn1)C(=O)N[C@@H](CC(=O)O)C(=O)NCC(=O)N[C@@H](CO)C(=O)N[C@@H](Cc1ccccc1)C(=O)N[C@@H](CO)C(=O)N[C@@H](CC(=O)O)C(=O)N[C@@H](CCC(=O)O)C(=O)N[C@@H](CCSC)C(=O)N[C@@H](CC(N)=O)C(=O)N[C@H](C(=O)N[C@H](C(=O)N[C@@H](CC(C)C)C(=O)N[C@@H](CC(=O)O)C(=O)N[C@@H](CC(N)=O)C(=O)N[C@@H](CC(C)C)C(=O)N[C@@H](C)C(=O)N[C@@H](C)C(=O)N[C@@H](CCCNC(=N)N)C(=O)N[C@@H](CC(=O)O)C(=O)N[C@@H](Cc1ccccc1)C(=O)N[C@H](C(=O)N[C@@H](CC(N)=O)C(=O)N[C@@H](Cc1c[nH]c2ccccc12)C(=O)N[C@@H](CC(C)C)C(=O)N[C@H](C(=O)N[C@@H](CCC(N)=O)C(=O)N[C@H](C(=O)N[C@@H](CCCCN)C(=O)N[C@H](C(=O)N[C@H](C(=O)N[C@@H](CC(=O)O)C(=O)O)[C@@H](C)O)[C@@H](C)CC)[C@@H](C)O)[C@@H](C)CC)[C@@H](C)CC)[C@@H](C)CC)[C@@H](C)O [[Nval2]hGLP-2(1-33)] (H-H[Nva]DGSFSDEMNTILDNLAARDFINWLIQTKITD-OH)	111	0
CC[C@H](C)[C@H](NC(=O)[C@H](Cc1ccccc1)NC(=O)[C@H](CC(=O)O)NC(=O)[C@H](CCCNC(=N)N)NC(=O)[C@H](C)NC(=O)[C@H](C)NC(=O)[C@H](CC(C)C)NC(=O)[C@H](CC(N)=O)NC(=O)[C@H](CC(=O)O)NC(=O)[C@H](CC(C)C)NC(=O)[C@@H](NC(=O)[C@@H](NC(=O)[C@H](CC(N)=O)NC(=O)[C@H](CCSC)NC(=O)[C@H](CCC(=O)O)NC(=O)[C@H](CC(=O)O)NC(=O)[C@H](CO)NC(=O)[C@H](Cc1ccccc1)NC(=O)[C@H](CO)NC(=O)CNC(=O)[C@H](CC(=O)O)NC(=O)[C@@H](NC(=O)[C@@H](N)Cc1c[nH]cn1)C(C)(C)S)[C@@H](C)O)[C@@H](C)CC)C(=O)N[C@@H](CC(N)=O)C(=O)N[C@@H](Cc1c[nH]c2ccccc12)C(=O)N[C@@H](CC(C)C)C(=O)N[C@H](C(=O)N[C@@H](CCC(N)=O)C(=O)N[C@H](C(=O)N[C@@H](CCCCN)C(=O)N[C@H](C(=O)N[C@H](C(=O)N[C@@H](CC(=O)O)C(=O)O)[C@@H](C)O)[C@@H](C)CC)[C@@H](C)O)[C@@H](C)CC [[Pen2]hGLP-2(1-33)] (H-H[Pen]DGSFSDEMNTILDNLAARDFINWLIQTKITD-OH)	58	20
CC[C@H](C)[C@H](NC(=O)[C@H](Cc1ccccc1)NC(=O)[C@H](CC(=O)O)NC(=O)[C@H](CCCNC(=N)N)NC(=O)[C@H](C)NC(=O)[C@H](C)NC(=O)[C@H](CC(C)C)NC(=O)[C@H](CC(N)=O)NC(=O)[C@H](CC(=O)O)NC(=O)[C@H](CC(C)C)NC(=O)[C@@H](NC(=O)[C@@H](NC(=O)[C@H](CC(N)=O)NC(=O)[C@H](CCSC)NC(=O)[C@H](CCC(=O)O)NC(=O)[C@H](CC(=O)O)NC(=O)[C@H](CO)NC(=O)[C@H](Cc1ccccc1)NC(=O)[C@H](CO)NC(=O)CNC(=O)[C@H](CC(=O)O)NC(=O)[C@@H](NC(=O)[C@@H](N)Cc1c[nH]cn1)c1ccccc1)[C@@H](C)O)[C@@H](C)CC)C(=O)N[C@@H](CC(N)=O)C(=O)N[C@@H](Cc1c[nH]c2ccccc12)C(=O)N[C@@H](CC(C)C)C(=O)N[C@H](C(=O)N[C@@H](CCC(N)=O)C(=O)N[C@H](C(=O)N[C@@H](CCCCN)C(=O)N[C@H](C(=O)N[C@H](C(=O)N[C@@H](CC(=O)O)C(=O)O)[C@@H](C)O)[C@@H](C)CC)[C@@H](C)O)[C@@H](C)CC [[PhGly2]hGLP-2(1-33)] (H-H[Phg]DGSFSDEMNTILDNLAARDFINWLIQTKITD-OH)	37	0
CC[C@H](NC(=O)[C@@H](N)Cc1c[nH]cn1)C(=O)N[C@@H](CC(=O)O)C(=O)NCC(=O)N[C@@H](CO)C(=O)N[C@@H](Cc1ccccc1)C(=O)N[C@@H](CO)C(=O)N[C@@H](CC(=O)O)C(=O)N[C@@H](CCC(=O)O)C(=O)N[C@@H](CCSC)C(=O)N[C@@H](CC(N)=O)C(=O)N[C@H](C(=O)N[C@H](C(=O)N[C@@H](CC(C)C)C(=O)N[C@@H](CC(=O)O)C(=O)N[C@@H](CC(N)=O)C(=O)N[C@@H](CC(C)C)C(=O)N[C@@H](C)C(=O)N[C@@H](C)C(=O)N[C@@H](CCCNC(=N)N)C(=O)N[C@@H](CC(=O)O)C(=O)N[C@@H](Cc1ccccc1)C(=O)N[C@H](C(=O)N[C@@H](CC(N)=O)C(=O)N[C@@H](Cc1c[nH]c2ccccc12)C(=O)N[C@@H](CC(C)C)C(=O)N[C@H](C(=O)N[C@@H](CCC(N)=O)C(=O)N[C@H](C(=O)N[C@@H](CCCCN)C(=O)N[C@H](C(=O)N[C@H](C(=O)N[C@@H](CC(=O)O)C(=O)O)[C@@H](C)O)[C@@H](C)CC)[C@@H](C)O)[C@@H](C)CC)[C@@H](C)CC)[C@@H](C)CC)[C@@H](C)O [[aAbu2]hGLP-2(1-33)] (H-H[Abu]DGSFSDEMNTILDNLAARDFINWLIQTKITD-OH)	84	49
CC[C@H](C)[C@H](NC(=O)[C@H](Cc1ccccc1)NC(=O)[C@H](CC(=O)O)NC(=O)[C@H](CCCNC(=N)N)NC(=O)[C@H](C)NC(=O)[C@H](C)NC(=O)[C@H](CC(C)C)NC(=O)[C@H](CC(N)=O)NC(=O)[C@H](CC(=O)O)NC(=O)[C@H](CC(C)C)NC(=O)[C@@H](NC(=O)[C@@H](NC(=O)[C@H](CC(N)=O)NC(=O)[C@H](CCSC)NC(=O)[C@H](CCC(=O)O)NC(=O)[C@H](CC(=O)O)NC(=O)[C@H](CO)NC(=O)[C@H](Cc1ccccc1)NC(=O)[C@H](CO)NC(=O)CNC(=O)[C@H](CC(=O)O)NC(=O)CCNC(=O)[C@@H](N)Cc1c[nH]cn1)[C@@H](C)O)[C@@H](C)CC)C(=O)N[C@@H](CC(N)=O)C(=O)N[C@@H](Cc1c[nH]c2ccccc12)C(=O)N[C@@H](CC(C)C)C(=O)N[C@H](C(=O)N[C@@H](CCC(N)=O)C(=O)N[C@H](C(=O)N[C@@H](CCCCN)C(=O)N[C@H](C(=O)N[C@H](C(=O)N[C@@H](CC(=O)O)C(=O)O)[C@@H](C)O)[C@@H](C)CC)[C@@H](C)O)[C@@H](C)CC [[bAla2]hGLP-2(1-33)] (H-H[βAla]DGSFSDEMNTILDNLAARDFINWLIQTKITD-OH)	118	0
CC[C@H](C)[C@H](NC(=O)[C@H](Cc1ccccc1)NC(=O)[C@H](CC(=O)O)NC(=O)[C@H](CCCNC(=N)N)NC(=O)[C@H](C)NC(=O)[C@H](C)NC(=O)[C@H](CC(C)C)NC(=O)[C@H](CC(N)=O)NC(=O)[C@H](CC(=O)O)NC(=O)[C@H](CC(C)C)NC(=O)[C@@H](NC(=O)[C@@H](NC(=O)[C@H](CC(N)=O)NC(=O)[C@H](CCSC)NC(=O)[C@H](CCC(=O)O)NC(=O)[C@H](CC(=O)O)NC(=O)[C@H](CO)NC(=O)[C@H](Cc1ccccc1)NC(=O)[C@H](CO)NC(=O)CNC(=O)[C@H](CC(=O)O)NC(=O)[C@H](C)NC(=O)CCc1ccc(O)cc1)[C@@H](C)O)[C@@H](C)CC)C(=O)N[C@@H](CC(N)=O)C(=O)N[C@@H](Cc1c[nH]c2ccccc12)C(=O)N[C@@H](CC(C)C)C(=O)N[C@H](C(=O)N[C@@H](CCC(N)=O)C(=O)N[C@H](C(=O)N[C@@H](CCCCN)C(=O)N[C@H](C(=O)N[C@H](C(=O)N[C@@H](CC(=O)O)C(=O)O)[C@@H](C)O)[C@@H](C)CC)[C@@H](C)O)[C@@H](C)CC [[desNH2Tyr1]hGLP-2(1-33)] (Desaminotyrosyl-ADGSFSDEMNTILDNLAARDFINWLIQTKITD-OH)	125	15
CC[C@H](C)[C@H](NC(=O)[C@H](Cc1ccccc1)NC(=O)[C@H](CC(=O)O)NC(=O)[C@H](CCCNC(=N)N)NC(=O)[C@H](C)NC(=O)[C@H](C)NC(=O)[C@H](CC(C)C)NC(=O)[C@H](CC(N)=O)NC(=O)[C@H](CC(=O)O)NC(=O)[C@H](CC(C)C)NC(=O)[C@@H](NC(=O)[C@@H](NC(=O)[C@H](CC(N)=O)NC(=O)[C@H](CCSC)NC(=O)[C@H](CCC(=O)O)NC(=O)[C@H](CC(=O)O)NC(=O)[C@H](CO)NC(=O)[C@H](Cc1ccccc1)NC(=O)[C@H](CO)NC(=O)CNC(=O)[C@H](CC(=O)O)NC(=O)[C@@H](NC(=O)[C@@H](N)Cc1c[nH]cn1)C(C)(C)C)[C@@H](C)O)[C@@H](C)CC)C(=O)N[C@@H](CC(N)=O)C(=O)N[C@@H](Cc1c[nH]c2ccccc12)C(=O)N[C@@H](CC(C)C)C(=O)N[C@H](C(=O)N[C@@H](CCC(N)=O)C(=O)N[C@H](C(=O)N[C@@H](CCCCN)C(=O)N[C@H](C(=O)N[C@H](C(=O)N[C@@H](CC(=O)O)C(=O)O)[C@@H](C)O)[C@@H](C)CC)[C@@H](C)O)[C@@H](C)CC [[tBuGly2]hGLP-2] (H-H[Tle]DGSFSDEMNTILDNLAARDFINWLIQTKITD-OH)	123	0

— patent US8933039B2 (NPS Pharmaceuticals, Inc., priority 1995, dated 2015)
